Values after ≈ are worked out from the molar mass of the structure shown. Where two headings read alike, the source gives them in different places.
Experiments:
HSV-2 (strain MS) = experiment: HSV-β-Gal assay: transient expression of beta galactosidase in transfected HeLa cells superinfected with HSV-2; assay type: cell-based
Protocol: (§1) HeLa and Vero cell cultures were maintained in Eagles Minimal Essential Medium (EMEM) which was supplemented with glutamine, penicillin, streptomycin and 10% fetal calf serum (10% EMEM). Stock cultures of HSV-2 (strain MS available from ATCC VR-540) were grown in and harvested from Vero cells. Viral stocks were titered in Vero cells according to established procedures.
Plasmid pON 245^ori- contains the promoter of the HSV-1 thymidine kinase (tk) gene located immediately 5'of the E. coli lac Z gene. In this arrangement, the tk promoter controls transcription from the bacterial gene in transient expression assays. Additionally, an SV40 polyadenylation signal is present at the 3' end of the lac Z gene to allow for the efficient translation of the mRNA in eucaryotic cells. The expression of beta galactosidase in a transient assay using pON 245^ori- is dependent upon superinfection of the transfected cells with HSV. […] For example see U.S. application Ser. No. 07/435,491 filed Sep. 5, 1989, the disclosure of which is incorporated herein by reference thereto.
HeLa cells were seeded into 96 well microtiter plates and allowed to grow to 80% confluency (approximately 35000 cells/well). One half microgram of plasmid pON 245^ori- DNA was introduced into the cells of each well by the […] precipitation technique (Grahman and Van der Eb, 1973). Four to six hours later, the cells were rinsed with hank's Balanced Salt Solution (HBSS), overlaid with 10% EMEM and incubated at 37° C. At 24 hours post-transfection, cells were rinsed, overlaid with 10% EMEM again and re-incubated at 37° C. At 48 hours post-transfection, cells were rinsed and overlaid with either EMEM containing 2% fetal calf serum (2% EMEM), 2% EMEM containing HSV-2 (strain MS, Multiplicity of Infection [moi]=5 pfu/cell) or 2% EMEM containing HSV-2 and the appropriate concentration of Schering compound to be tested. Twenty-four hours later, the cells were harvested and assayed for beta galactosidase activity as described below.
All determinations of beta galactosidase activity were performed in 96 well microtiter plates. The intracellular level of beta galactosidase activity in each well was determined from cell lysates of the monolayer cultures. Aliquots were assayed by incubation in the presence of beta galactosidase substrate, 4-methylumbelliferyl-β-D-galactoside (MUG, 125 ug/ml, Sigma), for 2 hours. The generation of fluorescent product was quantified on a Microfluor microfluorimeter (Dynatech) after addition of 0.1M glycine, pH 10.3 (Spaete and Mocarski, 1985). The inhibitory activity of a compound was plotted versus the concentration and an IC50 value (the concentration of compound required to reduce beta glactosidase expression by 50%) was obtained for each compound tested.

[1] = Compound toxicity assay: inhibition of HeLa cell translation (3H-leucine incorporation); assay type: cell-based; settings: human, HeLa cells
Protocol: as §1
HeLa cells were treated with inhibitory compound for 24 hours, after which levels of translational activity were assayed.
For assay of translational activity, HeLa cultures were grown to 80% confluency in 96 well microtiter plates, treated with appropriate concentrations of compound in 2% EMEM during an overnight incubation at 37° C., then rinsed with HBSS and overlaid with […] of 2% EMEM containing 8 uCi of tritiated leucine (^3 H-LEU, […], Amersham Corp., Arlington Heights, Ill.). After a 1 hour incubation at 36.5°C., the cells were rinsed twice with phosphate buffered saline (PBS) and lysed in 400 ul/well of 1×PBS, 0.5% sodium dodecyl sulphate (SDS). After a 10 min incubation at 36.5° C., the contents of the well were transferred to a well in a Millititer HA microfiltration plate (Millipore Corp., Bedford, Mass.). The TCA insoluble proteins were precipitated onto the filter disc by a 10 min fixation with 5% TCA, followed by filtration under vacuum and three 10 minute rinses with 95% ethanol. The filters were dried at room temperature, cut from the milltitier plate and transferred to scintillation vials. TCA precipitable counts were assayed in 5 ml of Scintisol (Isolab, Akron, Ohio). The inhibitory activity of a compound was plotted versus the concentration and an IC50 value (that concentration of the compound required to decrease cellular translational activity by 50%) was derived for each compound.

[2] = Human alphaherpesvirus 2, HeLa, read-out: HSV: antiHSV activity, HSVβ-Gal Assay, IC50
[3] = Table II, read-out: Cytotoxicity 3H-LEU assay IC50
[4] = Human alphaherpesvirus 2, HeLa, 24 h, read-out: Anti-HSV activity, HSV-β-GAL assay IC50
[5] = Human alphaherpesvirus 2, Table II, HeLa cells, HSV-2 strain MS, 24 h, read-out: Anti-HSV activity, HSV-β-GAL assay IC50
[6] = Human alphaherpesvirus 2, Table II^1, HeLa cells, HSV-2 strain MS, 24 h, read-out: Anti-HSV activity HSV-β-Gal assay IC50

Row | Compound | CC50 at 24 h [1, 3] [µg/mL] | IC50 (HSV-2 (strain MS); [5]) [µg/mL] | other results
1 | COc1c(CCO)c(=O)n(C)c2ccccc12 [Compound 106] | – | – | IC50 (HSV-2 (strain MS); [2]): > 25 µg/mL
2 | CCCCCCn1c(=O)c(C2NCCS2)c(OC)c2cc(C)ccc21 (stereo not shown) [Compound 8, 1-Hexyl-3-(2-thiazolidinyl)-4-methoxy-6-methyl-2(1H)-Quinolinone] | 3 (≈ 8.32 µM) | – | IC50 (HSV-2 (strain MS); [4]): < 3 µg/mL
3 | CCCCCCn1c(=O)c(Cn2cnnc2)c(OC)c2cc(C)ccc21 [Compound 12, 1-hexyl-3-(1,2,4-triazol-4-ylmethyl)-4-methoxy-6-methyl-2(1H)-quinolinone] | 32 (≈ 90.3 µM) | 4.5 (≈ 12.7 µM) | –
4 | C=CCOC(=O)c1c(OC)c2cc(C)ccc2n(CCCCCC)c1=O [Compound 104] | – | – | IC50 (HSV-2 (strain MS); [2]): > 25 µg/mL
5 | CCCCCCn1c(=O)c(C2OCCO2)c(OC)c2cc(C)ccc21 [Compound 23, 1-Hexyl-3-[2-(1,3-dioxolano)]-4-methoxy-6-methyl-2(1H)-Quinolinone] | > 100 | 9 (≈ 26.1 µM) | –
6 | CCCCCCn1c(=O)c(CBr)c(OC)c2ccccc21 [Compound 15, 1-Hexyl-3-Bromomethyl-4-Methoxy-2(1H)-Quinolinone] | 25 (≈ 71 µM) | 5 (≈ 14.2 µM) | –
7 | CCCCCCn1c(=O)c(C(=O)O)c(OC)c2cc(C)ccc21 [Compound 105] | – | – | IC50 (HSV-2 (strain MS); [2]): > 25 µg/mL
8 | CCCCCCn1c(=O)c(Cn2ncnn2)c(OC)c2ccccc21 [Compound 6, 1-hexyl-3-(2-tetrazolylmethyl)-4-methoxy-2(1H)-quinolinone] | 7 (≈ 20.5 µM) | – | IC50 (HSV-2 (strain MS); [4]): 3 µg/mL (≈ 8.79 µM)
9 | CC(=O)Oc1c(Sc2ccccc2)c(=O)n(C)c2ccc(F)cc12 [Compound 102] | – | – | IC50 (HSV-2 (strain MS); [2]): 21 µg/mL (≈ 61.2 µM)
10 | COc1c(SC)c(=O)n(Cc2ccc(O)cc2)c2cc(C)c(C)cc12 [Compound 25] | – | 10 (≈ 28.1 µM) | –
11 | CCOC(=O)c1c(OC)c2ccccc2n(C)c1=O [Compound 107] | – | – | IC50 (HSV-2 (strain MS); [2]): > 25 µg/mL
12 | CCCCCCn1c(=O)c(Cn2ccnc2)c(OC)c2cc(C)ccc21 [Compound 11, 1-Hexyl-3-(1H-imidazol-1-ylmethyl)-4-methoxy-6-methyl-2(1H)-quinolinone] | 17 (≈ 48.1 µM) | 4.5 (≈ 12.7 µM) | –
13 | CCCCCCn1c(=O)c(C=NO)c(OC)c2cc(C)ccc21 [Compound 4, 1-Hexyl-3-Oximinomethyl-4-Methoxy-6-Methyl-2(1H )-Quinolinone] | 100 (≈ 316 µM) | – | IC50 (HSV-2 (strain MS); [4]): 3 µg/mL (≈ 9.48 µM)
14 | Cc1c(OC(=O)c2cccs2)ccc2c(N)cc(=O)oc12 [Compound 66, 4-Amino-7-(Thiophene-2-carbonyloxy)-8-Methyl-Benzopyran-2-one] | – | – | IC50 (HSV-2 (strain MS); [6]): > 25 µg/mL
15 | CCCCCCn1c(=O)c(C2OCCO2)c(OC)c2ccccc21 [Compound 24] | – | 10 (≈ 30.2 µM) | –
16 | Cc1c(OC(=O)c2ccncc2)ccc2c(N)cc(=O)oc12 [Compound 67, 4-Amino-7-Isonicotinoxy-8-Methyl-Benzopyran-2-one] | – | – | IC50 (HSV-2 (strain MS); [6]): 14 µg/mL (≈ 47.3 µM)
17 | Cc1c(OC(=O)[C@H](C)NC(=O)OC(C)(C)C)ccc2c(N)cc(=O)oc12 [Compound 71, 4-Amino-7-(BOC-L-Alanyloxy)-8-Methyl-Benzopyran-2-one] | – | – | IC50 (HSV-2 (strain MS); [6]): > 25 µg/mL
18 | CCCCCCn1c(=O)c(Cn2cnnn2)c(OC)c2cc(C)ccc21 [Compound 14, 1-Hexyl-3-(1-Tetrazolylmethyl)-4-Methoxy-6-Methyl-2(1H)-Quinolinone] | > 100 | 5 (≈ 14.1 µM) | –

Row | Compound | CC50 at 24 h [1, 3] [µg/mL] | IC50 (HSV-2 (strain MS); [5]) [µg/mL] | other results
19 | CCCCCCn1c(=O)c(C=NOC)c(OC)c2cc(C)ccc21 [Compound 26, 1-Hexyl-3-Methoximinomethyl-4-Methoxy-6-Methyl-2(1H)-Quinolinone] | 27 (≈ 81.7 µM) | 7 (≈ 21.2 µM) | –
20 | CCCCCCn1c(=O)c(Cn2cnnn2)c(OC)c2ccccc21 [Compound 18, 1-Hexyl-3-(1-tetrazolymethyl)-4-methoxy-2(1H)-quinolinone] | 18 (≈ 52.7 µM) | 6 (≈ 17.6 µM) | –
21 | CCCCCCn1c(=O)c(Cn2ncnn2)c(OC)c2cc(C)ccc21 [Compound 13, 1-hexyl-3-(2-tetrazolylmethyl)-4-methoxy-6-methyl-2(1H)-quinolinone] | 17 (≈ 47.8 µM) | 5 (≈ 14.1 µM) | –
22 | 4-Amino-7-Acetyloxy-8-Methyl-Benzopyran-2-one [Compound 68] | – | – | Anti-HSV activity HSV-β-Gal assay IC50 (HSV-2 (strain MS); Table II^1, HeLa cells, HSV-2 strain MS, 24 h): 30.0 µg/mL
23 | COc1c(SC)c(=O)n(Cc2ccc(O[Si](C)(C)C(C)(C)C)cc2)c2cc(C)c(C)cc12 [Compound 1] | 1.8 (≈ 3.83 µM) | 1.5 (≈ 3.19 µM) | –
24 | CCCCCCn1c(=O)c(C=NO)c(OC)c2ccccc21 [Compound 17, 1-Hexyl-3-Hydroximinomethyl-4-Methoxy-2(1H)-Quinolinone] | 25 (≈ 82.7 µM) | 6 (≈ 19.8 µM) | –
25 | CCCCCCn1c(=O)c(C=NOC)c(OC)c2ccccc21 [Compound 3, 1-Hexyl-3-Methoximinomethyl-4-Methoxy-2(1H)-Quinolinone] | 12.6 (≈ 39.8 µM) | 2.5 (≈ 7.9 µM) | –
26 | CCOC(=O)c1c(OC(=O)c2ccc[nH]2)c2ccccc2n(C)c1=O [Compound 101] | – | – | CC50 at 24 h ([1]; Table IV compound, read-out: Cytotoxicity 3H-Leu Assay IC50): 40 µg/mL (≈ 118 µM); IC50 (HSV-2 (strain MS); [2]): 20 µg/mL (≈ 58.8 µM)
27 | COc1c(Sc2ccccc2)c(=O)n(C)c2ccc(F)cc12 [Compound 22] | 25 (≈ 79.3 µM) | 8 (≈ 25.4 µM) | –
28 | Cc1cc2c(OCCN(C)C)c(SCO)c(=O)n(Cc3ccc(O[Si](C)(C)C(C)(C)C)cc3)c2cc1C [Compound 5] | 15 (≈ 27.6 µM) | 3 (≈ 5.53 µM) | –
29 | CCCCCCn1c(=O)c(Cn2cncn2)c(OC)c2ccccc21 [Compound 16, 1-Hexyl-3(1,2,4-Triazol-1-ylmethyl)-4-Methoxy-2(1H)-Quinolinone] | 18 (≈ 52.9 µM) | 5 (≈ 14.7 µM) | –
30 | CON=Cc1c(OC)c2ccccc2n(Cc2ccccc2)c1=O [Compound 20, 1-Benzyl-3-Methoxyiminomethyl-4-Methoxy-2(1H)-Quinolinone] | – | 7 (≈ 21.7 µM) | –
31 | CCCCCCn1c(=O)c(Cn2cncn2)c(OC)c2cc(C)ccc21 [Compound 10, 1-Hexyl-3-(1,2,4-Triazol-1-ylmethyl)-4-Methoxy-6-Methyl-2(1H)-Quinolinone] | > 100 | 4 (≈ 11.3 µM) | –
32 | Cc1c(OC(=O)c2ccco2)ccc2c(N)cc(=O)oc12 [Compound 65, 4-Amino-7-(2-Furoyloxy)-8-Methyl-Benzopyran-2-one] | – | – | IC50 (HSV-2 (strain MS); [6]): > 25 µg/mL
33 | CCCCCCn1c(=O)c(C(=O)OCC)c(OC)c2cc(C)ccc21 [Compound 19, 1-hexyl-3-ethoxycarbonyl-4-methoxy-6-methyl-2(1H)-quinolinone] | – | 7 (≈ 20.3 µM) | –
34 | CCCCCCn1c(=O)c(C(=O)OCC)c(OC(=O)c2cccn2C)c2cc(C)ccc21 [Compound 103] | – | – | IC50 (HSV-2 (strain MS); [2]): 25 µg/mL (≈ 57 µM)
35 | CCCCCCn1c(=O)c(C2NCCS2)c(OC)c2ccccc21 (stereo not shown) [Compound 2, 1-Hexyl-3-(2-thiazolidinyl)-4-methoxy-2(1H)-Quinolinone] | 32 (≈ 92.4 µM) | – | IC50 (HSV-2 (strain MS); [4]): 2 µg/mL (≈ 5.77 µM)

Reference: patent US5942522A, “Antiviral compounds and antihypertensive compounds” (Schering Corporation, priority 1997, dated 1999)
